For assay [1], the system named is Escherichia coli. The assay is described as follows: Compound was tested for its ability to inhibit DNA strand scission induced by resveratrol and Cu2+, at concentration 1 mM. In kind it is functional.
Assay [2] concerns Escherichia coli. The assay is described as follows: Compound was tested for its ability to inhibit DNA strand scission induced by resveratrol and Cu2+, at concentration 50 mM. Format: functional.

`Cc1ccoc1C` showed an inhibition at 1000 µM in assay [1] of 98.7%.

As for `[I-].[K+]` [POTASSIUM IODIDE], in assay [2], the inhibition at 50000 µM is 61.5%. In turn, `CCO` [ALCOHOL] returned an inhibition at 50000 µM in assay [2] of 1.9%. `O=S(=O)(O)c1cc(O)c(O)c(S(=O)(=O)O)c1` [TIRON] registered an inhibition at 1000 µM in assay [1] of 96.5%. In assay [2], `[N-]=[N+]=[N-]` [SODIUM AZIDE] displayed an inhibition at 50000 µM of 1.2%.

Regarding `NC(N)=S` [THIOUREA], in assay [2], the inhibition at 50000 µM turned out to be 93.8%. In turn, `OC[C@@H](O)[C@@H](O)[C@H](O)[C@H](O)CO` [MANNITOL] yielded an inhibition at 50000 µM in assay [2] of 0.6%. Same read-out and setting: for `C[S+](C)[O-]` [DIMETHYL SULFOXIDE] the value was 2.8%.

As a reminder, the inhibition is the percentage by which the read-out fell short of the control. A lower inhibition goes with little suppression.

The record behind these values is ChEMBL document CHEMBL1130669, “Resveratrol as a new type of DNA-cleaving agent” (1998).
